According to patent publication US20050008715A1, “Method for preventing fungal growth in plants” (priority 2003, published 2005):
Marks after values point to notes of the source that are not given here.

What was measured:
Format in all cases: cell-based
Phytophthora nicotiana = assay: Mycelial growth from inoculum plugs in amended basal nutrient solution; settings: 48 hours
Protocol: (§1) The efficacy of the garlic extract was tested against […] soil-borne fungi that cause root and lower stem rots of plants. The fungal pathogens included: Pythium aphanidermatum, Pythium irregular, Pythium ultimum, Phytophthora capsici, Phytophthora cinnamomi, Phytophthora nicotiana, Rhizoctonia solani, Fusarium oxysporum f.sp. lycopersici, Fusarium oxysporum f.sp. spinaciae, and Thielaviopsis basicola. All isolates used in this investigation were known to be pathogenic to various cultivated plant species.
(§2) All isolates of Pythium aphanidermatum, Pythium irregular, Pythum ultimum, Phytophthora capsici, Phytophthora cinnamomi, Phytophthora nicotiana, Rhizoctonia solani, Fusarium oxysporum f.sp. lycopersici, Fusarium oxysporum f.sp. spinaciae were grown on standard corn meal agar (CMA) for 8 to 9 days. Plugs from inoculum plates were taken using a #4 cork borer (5 mm diameter). Inoculum plugs were placed into 5-cm sterile plastic petri dishes containing 10 ml of a basal nutrient solution that consisted of 60% (v/v) clarified V-8 juice and sterile distilled water (SDW). Basal nutrient solutions were amended with the appropriate treatments. Treatments included SDW (non-treated control), a fungicidal agent appropriate to each species (metylaxyl for the Pythium and Phytophthora species, PCNB for Rhizoctonia, and Allegiance(r) for Fusarium), or 10%, 15%, 20%, 25%, or 30% (v/v) garlic extract. Cultures were placed into a growth chamber and maintained in the dark at 22(C(1(C. After 48 hours, mycelial growth (if any was visible) from culture plugs was measured.

Phytophthora capsici = assay: as above; settings: 48 hours
Protocol: as §1, §2

Pythium aphanidermatum = assay: as above; settings: 48 hours
Protocol: as §1, §2

Pythium irregular = assay: as above; settings: 48 hours
Protocol: as §1, §2

Pythium ultimum = assay: as above; settings: 48 hours
Protocol: as §1, §2

Phytophthora cinnamomi = assay: as above; settings: 48 hours
Protocol: as §1, §2

[1] = test system: Pythium and Phytophthora species; assay: Mycelial growth in amended basal nutrient solution; settings: basal nutrient solution amended with metalaxyl
Protocol: as §1
as §2, with “Treatments included SDW (non-treated control), a fungicidal agent appropriate to each species (metylaxyl for the Pythium and Phytophthora species, PCNB for Rhizoctonia, and Allegiance(r) for Fusarium), or 10%, 15%, 20%, 25%, or 30% (v/v) garlic extract.” left out

Rhizoctonia solani = assay: Mycelial growth from inoculum plugs in amended basal nutrient solution; settings: for Growth of Rhizoctonia on amended basal nutrient solution: PCNB
Protocol: as §1, §2

[2] = Fungicide control (Metylaxyl) in basal nutrient solution
[3] = Fungicide control (Metylaxyl), from edge of inoculum plug

Row | Structure (SMILES) | Plates with visible mycelial growth (%) (Phytophthora nicotiana; [2]) | Measured growth (cm) (Phytophthora nicotiana; [3]) | Plates with visible mycelial growth (%) (Phytophthora capsici; [2]) | Measured growth (cm) (Phytophthora capsici; [3]) | Plates with visible mycelial growth (%) (Pythium aphanidermatum; [2]) | Measured growth (cm) (Pythium aphanidermatum; [3]) | Plates with visible mycelial growth (%) (Pythium irregular; [2]) | Measured growth (cm) (Pythium irregular; [3]) | Plates with visible mycelial growth (%) (Pythium ultimum; [2]) | Measured growth (cm) (Pythium ultimum; [3]) | Plates with visible mycelial growth (%) (Phytophthora cinnamomi; [2]) | Measured growth (cm) (Phytophthora cinnamomi; [3]) | Pythium and Phytophthora species that grew from the inoculum plugs [1] | Plates with visible mycelial growth (%) (Rhizoctonia solani; Fungicide control (PCNB) in basal nutrient solution, 48 hours) | Measured growth (cm) (Rhizoctonia solani; Fungicide control (PCNB), 48 hours, from edge of inoculum plug) | Growth of Rhizoctonia on amended basal nutrient solution (Rhizoctonia solani; first replication, inappropriate PCNB concentration) | Growth of Rhizoctonia on amended basal nutrient solution (Rhizoctonia solani; second replication)
1 | COCC(=O)N(c1c(C)cccc1C)C(C)C(=O)OC (centres unmarked) [Metylaxyl] | 0% | 0 cm | 0% | 0 cm | 0% | 0 cm | 0% | 0 cm | 0% | 0 cm | 0% | 0 cm | none |  |  |  | 
2 | O=[N+]([O-])c1c(Cl)c(Cl)c(Cl)c(Cl)c1Cl [PCNB] |  |  |  |  |  |  |  |  |  |  |  |  |  | 50^x % | 0.3 cm | limited amount of growth | did not grow
